From PMC9127750, “Structure-based design of CDC42 effector interaction inhibitors for the treatment of cancer” (Cell reports, 2022)
Several values for one entry are separate records, joined by “and”; a condition that tells them apart may be missing. Equal values may be shown once.

System: WM3248 melanoma cells, 486 antibodies
Assay: Reverse phase protein arrays (RPPA)
Assay type: cell-based, Human
Source text: Pellets were snap frozen in liquid nitrogen and shipped to MD Anderson Cancer Center core RPPA facility for RPPA analysis (Table S5). Three biological replicates for each sample were generated.
Nomenclatures on the RPPA heatmaps: name_of_antibody.species_of_antibody.status_of_antibody. V - antibody validated; C - validation of antibody in progress; Q - antibody nonspecific; E – under evaluation; antibodies raised in M - mouse, G - goat, R - rabbit, or T - rat.

## CN(C)c1cccc(Nc2cc(-c3ccccc3)nc(C3CCNCC3)n2)c1 [ARN22089, N1,N1-dimethyl-N3-(6-phenyl-2-(piperidin-4-yl)pyrimidin-4-yl)benzene-1,3-diamine]
Level 10 vs 0
  LCN2.R.V Norm_10 Average: 1.417
  LDHA.R.C Norm_10 Average: 1.541
  LRP6_pS1490.R.V Norm_10 Average: 0.919
  Lasu1.R.V Norm_10 Average: 1.173
  MACC1.R.V Norm_10 Average: 0.973
  MAPK_pT202_Y204.R.C Norm_10 Average: 0.758
  MCT4.R.V Norm_10 Average: 0.926
  MDM2_pS166.R.V Norm_10 Average: 1.140
  MEK1.R.V Norm_10 Average: 1.376
  MEK1_pS217_S221.R.V Norm_10 Average: 0.904
  MEK2.R.V Norm_10 Average: 0.981
  MERIT40.R.C Norm_10 Average: 0.966
  MERIT40_pS29.R.V Norm_10 Average: 1.055
  METTL3.R.V Norm_10 Average: 1.153
  MIF.R.C Norm_10 Average: 1.003
  MIG6.R.V Norm_10 Average: 0.937
  MITF.R.V Norm_10 Average: 1.099
  MLH1.M.V Norm_10 Average: 0.965
  MLKL.R.V Norm_10 Average: 0.901
  MMP2.R.V Norm_10 Average: 0.936
  MMP14.R.V Norm_10 Average: 1.251
  MR1.M.C Norm_10 Average: 1.002
  MSH6.R.C Norm_10 Average: 1.139
  MSI2.R.C Norm_10 Average: 1.076
  MTCO1.M.V Norm_10 Average: 1.058
  MTSS1.M.C Norm_10 Average: 0.995
  Mcl.1.R.V Norm_10 Average: 0.815
  MelanA.R.C Norm_10 Average: 0.907
  Melanoma.gp100.R.C Norm_10 Average: 0.952
  Merlin.R.C Norm_10 Average: 1.140
  Midkine.R.V Norm_10 Average: 0.931
  Mitofusin.1.R.V Norm_10 Average: 0.966
  Mitofusin.2.R.V Norm_10 Average: 0.982
  Mnk1.R.V Norm_10 Average: 0.908
  mTOR_pS2448.R.C Norm_10 Average: 1.026
Level 10 vs 0, replicates
  HLA.DQA1.R.V Norm_10: 0.816 and 1.208 and 0.956
  HLA.DR.DP.DQ.DX.R.C Norm_10: 0.907 and 1.197
  HMHA1.R.V Norm_10: 0.915 and 0.873 and 0.979
  HNRNPK.R.V Norm_10: 0.952 and 0.960
  HSP27.M.C Norm_10: 0.892 and 1.008 and 0.976
  HSP27_pS82.R.V Norm_10: 0.956 and 0.808 and 0.983
  HSP60.R.V Norm_10: 0.910 and 0.899 and 0.970
  HSP70.R.C Norm_10: 0.893 and 0.957
  Hexokinase.I.R.C Norm_10: 1.324 and 1.263
  Hexokinase.II.R.V Norm_10: 1.158 and 1.060 and 1.165
  Hif.1αR.C Norm_10: 1.534 and 0.812 and 1.121
  Histone.H3.R.V Norm_10: 1.104 and 1.109 and 0.657
  Histone.H3_pS10.R.V Norm_10: 0.925 and 1.333 and 0.853
  IDO.R.C Norm_10: 1.020 and 0.847 and 1.005
  IGF1R_pY1135_Y1136.R.V Norm_10: 1.020 and 0.873 and 0.862
  IGFBP2.R.V Norm_10: 0.915 and 0.942
  IGFBP3.M.V Norm_10: 0.808 and 1.056 and 1.048
  IGFRb.R.C Norm_10: 1.063 and 0.914 and 0.882
  IL.6.R.C Norm_10: 0.956 and 0.898 and 0.919
  IMP3.R.C Norm_10: 0.902 and 1.022 and 0.935
  INPP4b.R.C Norm_10: 0.944 and 1.130 and 1.013
  IR.b.R.C Norm_10: 1.057 and 0.927 and 0.958
  IRF.1.R.V Norm_10: 0.995 and 0.851 and 0.777
  IRF.3.R.V Norm_10: 0.868 and 1.016 and 1.018
  IRS1.R.V Norm_10: 1.002 and 0.864 and 0.920
  IRS2.R.C Norm_10: 1.495 and 0.732 and 0.873
  JAB1.M.C Norm_10: 1.010
  JNK2.R.V Norm_10: 0.700 and 4.357 and 1.864
  JNK_pT183_Y185.R.C Norm_10: 1.101 and 0.836 and 0.927
  Jagged1.R.V Norm_10: 0.925 and 0.930 and 0.952
  Jak2.R.V Norm_10: 0.891 and 0.946
  KAP1.R.V Norm_10: 1.129 and 0.933 and 1.246
  KEAP1.R.V Norm_10: 1.137 and 0.961 and 0.953
  LAD1.R.V Norm_10: 0.810 and 0.787 and 1.126
  LC3A.B.R.C Norm_10: 1.080
  LCN2.R.V Norm_10: 1.979 and 1.149 and 1.123
  LDHA.R.C Norm_10: 1.080 and 1.446 and 2.097
  LRP6_pS1490.R.V Norm_10: 0.997 and 0.923 and 0.837
  Lasu1.R.V Norm_10: 0.972 and 1.377 and 1.170
  Lck.R.V Norm_10: 1.025
  Lyn.R.V Norm_10: 0.836 and 1.342 and 1.046
  MACC1.R.V Norm_10: 0.988 and 0.983
  MAPK_pT202_Y204.R.C Norm_10: 0.814 and 0.633 and 0.828
  MCT4.R.V Norm_10: 0.718 and 0.987
  MDM2_pS166.R.V Norm_10: 1.187 and 1.159
  MEK1.R.V Norm_10: 3.067 and 0.225 and 0.836
